# Measured values reported in patent US12392778B2, “Method for proteome-wide discovery of covalent ligands and compositions thereof” (BridGene Biosciences, Inc., priority 2019, dated 2025).
# Test system: SK-MEL-28 tumor cells
# Test: Melanoma CDX model, SK-MEL-28 tumor growth
# Format: in vivo, BALB/c nude mice
# Conditions: 60 mg/kg subcutaneously twice a day for 5 days, then once a day for 9 days; not statistically significant
# Experimental: For this model, BALB/c nude mice were inoculated subcutaneously (sc) with SK-MEL-28 tumor cells (5×10^6 in 0.1 mL PBS and Matigel, 1:1). […] Throughout the treatment period, tumor sizes were recorded. […] Vehicle control consisted of 5% DMSO and 95% of a 20% 2-hydroxypropyl-beta-cyclodextrin solution. Eight female mice were included in each group. t-test was done using GraphPad Software.
smiles,measurement,value
C#CCOc1cccc(Nc2ncnc3ccc(NC(=O)CCl)cc23)c1 [Compound 1],Tumor size compared to control,reduce tumor size compared to control starting at day 8
